# Experimental data reported in ChEMBL document CHEMBL1649254, “A Ser29Leu substitution in the cytosine deaminase Fca1p is responsible for clade-specific flucytosine resistance in Candida dubliniensis” (2009).
# What was measured:
# Assay type in all cases: functional
# Candida dubliniensis [1] = assay: […] activity against 5FC- […] Candida dubliniensis isolate SA109T1 harboring plasmid pNIM1 carrying CdFCA1 gene by broth microdilution method in presence of 30 ug/ml DOX
# Candida dubliniensis [2] = assay: […] activity against 5FC- resistant Candida dubliniensis isolate harboring plasmid p7276T3 carrying CdFCA1 gene by broth microdilution method in presence of 30 ug/ml DOX
# Candida dubliniensis [3] = assay: […] activity against 5FC- resistant Candida dubliniensis isolate harboring plasmid p7276T2 carrying CdFCA1 gene by broth microdilution method in presence of 30 ug/ml DOX
# Candida dubliniensis [4] = assay: […] activity against 5FC- resistant Candida dubliniensis isolate harboring plasmid p7276T1 carrying CdFCA1 gene by broth microdilution method in presence of 30 ug/ml DOX
# Candida dubliniensis [5] = assay: […] activity against Candida dubliniensis harboring plasmid p7276 by broth microdilution method in presence of 30 ug/ml DOX
# Candida dubliniensis [6] = assay: […] activity against Candida dubliniensis isolate SA109 by broth microdilution method in presence of 30 ug/ml DOX
# Candida dubliniensis [7] = assay: […] activity against Candida dubliniensis isolate SA113 by broth microdilution method in presence of 30 ug/ml DOX
# Candida dubliniensis [8] = assay: […] activity against Candida dubliniensis isolate harboring plasmid p7276 carrying GFP1T1 gene by broth microdilution method in presence of 25 ug/ml DOX
# Candida dubliniensis [9] = assay: […] activity against 5FC- […] Candida dubliniensis isolate SA113T1 harboring plasmid pNIM1 carrying CdFCA1 gene by broth microdilution method in presence of 25 ug/ml DOX
# Candida dubliniensis [10] = assay: […] activity against 5FC- […] Candida dubliniensis isolate SA109T2 harboring plasmid pNIM1 carrying CdFCA1 gene by broth microdilution method in presence of 25 ug/ml DOX
# Candida dubliniensis [11] = assay: […] activity against 5FC- […] Candida dubliniensis isolate SA109T1 harboring plasmid pNIM1 carrying CdFCA1 gene by broth microdilution method in presence of 25 ug/ml DOX
# Candida dubliniensis [12] = assay: […] activity against 5FC- resistant Candida dubliniensis isolate harboring plasmid p7276T3 carrying CdFCA1 gene by broth microdilution method in presence of 25 ug/ml DOX
# Candida dubliniensis [13] = assay: […] activity against 5FC- resistant Candida dubliniensis isolate harboring plasmid p7276T2 carrying CdFCA1 gene by broth microdilution method in presence of 25 ug/ml DOX
# Candida dubliniensis [14] = assay: […] activity against 5FC- resistant Candida dubliniensis isolate harboring plasmid p7276T1 carrying CdFCA1 gene by broth microdilution method in presence of 25 ug/ml DOX
# Candida dubliniensis [15] = assay: […] activity against Candida dubliniensis harboring plasmid p7276 by broth microdilution method in presence of 25 ug/ml DOX
# Candida dubliniensis [16] = assay: […] activity against Candida dubliniensis isolate SA109 by broth microdilution method in presence of 25 ug/ml DOX
# Candida dubliniensis [17] = assay: […] activity against Candida dubliniensis isolate SA113 by broth microdilution method in presence of 25 ug/ml DOX
# Candida dubliniensis [18] = assay: […] activity against Candida dubliniensis isolate harboring plasmid p7276 carrying GFP1T1 gene by broth microdilution method
# Candida dubliniensis [19] = assay: […] activity against 5FC- susceptible Candida dubliniensis isolate SA113T1 harboring plasmid pNIM1 carrying CdFCA1 gene by broth microdilution method
# Candida dubliniensis [20] = assay: […] activity against 5FC- […] Candida dubliniensis isolate SA109T2 harboring plasmid pNIM1 carrying CdFCA1 gene by broth microdilution method
# Candida dubliniensis [21] = assay: […] activity against 5FC- […] Candida dubliniensis isolate SA109T1 harboring plasmid pNIM1 carrying CdFCA1 gene by broth microdilution method
# Candida dubliniensis [22] = assay: […] activity against 5FC- resistant Candida dubliniensis isolate harboring plasmid p7276T3 carrying CdFCA1 gene by broth microdilution method
# Candida dubliniensis [23] = assay: […] activity against 5FC- resistant Candida dubliniensis isolate harboring plasmid p7276T2 carrying CdFCA1 gene by broth microdilution method
# Candida dubliniensis [24] = assay: […] activity against 5FC- resistant Candida dubliniensis isolate harboring plasmid p7276T1 carrying CdFCA1 gene by broth microdilution method
# Candida dubliniensis [25] = assay: […] activity against Candida dubliniensis harboring plasmid p7276 by broth microdilution method
# Candida dubliniensis [26] = assay: […] activity against Candida dubliniensis isolate SA109 by broth microdilution method
# Candida dubliniensis [27] = assay: […] activity against Candida dubliniensis isolate SA113 by broth microdilution method
# Candida dubliniensis [28] = assay: […] activity against Candida dubliniensis isolate SA121 of Cd25 fingerprint group 3 and ITS genotype 4 by CLSI M27-A2 method
# Candida dubliniensis [29] = assay: […] activity against Candida dubliniensis isolate SA118 of Cd25 fingerprint group 3 and ITS genotype 3 by CLSI M27-A2 method
# Candida dubliniensis [30] = assay: […] activity against Candida dubliniensis isolate SA113 of Cd25 fingerprint group 3 and ITS genotype 4 by CLSI M27-A2 method
# Candida dubliniensis [31] = assay: […] activity against Candida dubliniensis isolate SA109 of Cd25 fingerprint group 3 and ITS genotype 3 by CLSI M27-A2 method
# Candida dubliniensis [32] = assay: […] activity against Candida dubliniensis isolate SA108 of Cd25 fingerprint group 3 and ITS genotype 3 by CLSI M27-A2 method
# Candida dubliniensis [33] = assay: […] activity against Candida dubliniensis isolate SA103 of Cd25 fingerprint group 3 and ITS genotype 3 by CLSI M27-A2 method
# Candida dubliniensis [34] = assay: […] activity against Candida dubliniensis isolate SA107 of Cd25 fingerprint group 3 and ITS genotype 3 by CLSI M27-A2 method
# Candida dubliniensis [35] = assay: […] activity against Candida dubliniensis isolate SA100 of Cd25 fingerprint group 3 and ITS genotype 3 by CLSI M27-A2 method
# Candida dubliniensis [36] = assay: […] activity against Candida dubliniensis isolate Eg207 of Cd25 fingerprint group 3 and ITS genotype 4 by CLSI M27-A2 method
# Candida dubliniensis [37] = assay: […] activity against Candida dubliniensis isolate Eg202 of Cd25 fingerprint group 3 and ITS genotype 4 by CLSI M27-A2 method
# Candida dubliniensis [38] = assay: […] activity against Candida dubliniensis isolate Eg201 of Cd25 fingerprint group 3 and ITS genotype 4 by CLSI M27-A2 method
# Candida dubliniensis [39] = assay: […] activity against Candida dubliniensis isolate Eg200 of Cd25 fingerprint group 3 and ITS genotype 4 by CLSI M27-A2 method
# Candida dubliniensis [40] = assay: […] activity against Candida dubliniensis isolate p7718 of Cd25 fingerprint group 3 and ITS genotype 4 by CLSI M27-A2 method
# Candida dubliniensis [41] = assay: […] activity against Candida dubliniensis isolate p6785 of Cd25 fingerprint group 2 and ITS genotype 3 by CLSI M27-A2 method
# Candida dubliniensis [42] = assay: […] activity against Candida dubliniensis isolate p7276 of Cd25 fingerprint group 2 and ITS genotype 3 by CLSI M27-A2 method
# Candida dubliniensis [43] = assay: […] activity against Candida dubliniensis isolate Eg206 of Cd25 fingerprint group 1 and ITS genotype 1 by CLSI M27-A2 method
# Candida dubliniensis [44] = assay: […] activity against Candida dubliniensis isolate Eg203 of Cd25 fingerprint group 1 and ITS genotype 1 by CLSI M27-A2 method
# Candida dubliniensis [45] = assay: […] activity against Candida dubliniensis isolate SA115 of Cd25 fingerprint group 1 and ITS genotype 1 by CLSI M27-A2 method
# Candida dubliniensis [46] = assay: […] activity against Candida dubliniensis isolate SA105 of Cd25 fingerprint group 1 and ITS genotype 1 by CLSI M27-A2 method
# Candida dubliniensis [47] = assay: […] activity against Candida dubliniensis isolate SA101 of Cd25 fingerprint group 1 and ITS genotype 1 by CLSI M27-A2 method
# Candida dubliniensis [48] = assay: […] activity against Candida dubliniensis isolate CD36b of Cd25 fingerprint group 1 and ITS genotype 1 by CLSI M27-A2 method
# Candida albicans [49] = assay: […] activity against Candida albicans harboring Gly28Asp substitution in the cytosine deaminase gene by EUCAST method
# Candida albicans [50] = assay: […] activity against Candida albicans harboring Ser29Leu substitution in the cytosine deaminase gene by EUCAST method
# Candida dubliniensis [51] = assay: […] activity against 5FC-resistant Candida dubliniensis by NCCLS M27-A2 broth microdilution method
# Candida dubliniensis [52] = assay: […] activity against 5FC-susceptible Candida dubliniensis by NCCLS M27-A2 broth microdilution method
# Candida albicans [53] = assay: […] activity against Candida albicans by EUCAST method
# Candida dubliniensis [54] = assay: […] activity against 5FC- […] Candida dubliniensis isolate SA109T2 harboring plasmid pNIM1 carrying CdFCA1 gene by broth microdilution method in presence of 30 ug/ml DOX
# Candida dubliniensis [55] = assay: […] activity against 5FC- susceptible Candida dubliniensis isolate SA113T1 harboring plasmid pNIM1 carrying CdFCA1 gene by broth microdilution method in presence of 30 ug/ml DOX
# Candida dubliniensis [56] = assay: […] activity against Candida dubliniensis isolate harboring plasmid p7276 carrying GFP1T1 gene by broth microdilution method in presence of 30 ug/ml DOX
smiles,measurement,setting,value
Nc1nc(=O)[nH]cc1F [FLUCYTOSINE],MIC,Candida dubliniensis [1],≤ 0.25 µg/mL
same,MIC,Candida dubliniensis [2],≤ 0.25 µg/mL
same,MIC,Candida dubliniensis [3],≤ 0.25 µg/mL
same,MIC,Candida dubliniensis [4],≤ 0.25 µg/mL
same,MIC,Candida dubliniensis [5],≤ 0.25 µg/mL
same,MIC,Candida dubliniensis [6],≥ 128 µg/mL
same,MIC,Candida dubliniensis [7],≥ 128 µg/mL
same,MIC,Candida dubliniensis [8],≤ 0.25 µg/mL
same,MIC,Candida dubliniensis [9],≤ 0.25 µg/mL
same,MIC,Candida dubliniensis [10],≤ 0.25 µg/mL
same,MIC,Candida dubliniensis [11],≤ 0.25 µg/mL
same,MIC,Candida dubliniensis [12],≤ 0.25 µg/mL
same,MIC,Candida dubliniensis [13],≤ 0.25 µg/mL
same,MIC,Candida dubliniensis [14],≤ 0.25 µg/mL
same,MIC,Candida dubliniensis [15],≤ 0.25 µg/mL
same,MIC,Candida dubliniensis [16],≥ 128 µg/mL
same,MIC,Candida dubliniensis [17],≥ 128 µg/mL
same,MIC,Candida dubliniensis [18],≤ 0.25 µg/mL
same,MIC,Candida dubliniensis [19],≥ 128 µg/mL
same,MIC,Candida dubliniensis [20],≥ 128 µg/mL
same,MIC,Candida dubliniensis [21],≥ 128 µg/mL
same,MIC,Candida dubliniensis [22],≤ 0.25 µg/mL
same,MIC,Candida dubliniensis [23],≤ 0.25 µg/mL
same,MIC,Candida dubliniensis [24],≤ 0.25 µg/mL
same,MIC,Candida dubliniensis [25],≤ 0.25 µg/mL
same,MIC,Candida dubliniensis [26],≥ 128 µg/mL
same,MIC,Candida dubliniensis [27],≥ 128 µg/mL
same,MIC,Candida dubliniensis [28],≥ 128 µg/mL
same,MIC,Candida dubliniensis [29],≥ 128 µg/mL
same,MIC,Candida dubliniensis [30],≥ 128 µg/mL
same,MIC,Candida dubliniensis [31],≥ 128 µg/mL
same,MIC,Candida dubliniensis [32],≥ 128 µg/mL
same,MIC,Candida dubliniensis [33],≥ 128 µg/mL
same,MIC,Candida dubliniensis [34],≥ 128 µg/mL
same,MIC,Candida dubliniensis [35],≥ 128 µg/mL
same,MIC,Candida dubliniensis [36],≥ 128 µg/mL
same,MIC,Candida dubliniensis [37],≥ 128 µg/mL
same,MIC,Candida dubliniensis [38],≥ 128 µg/mL
same,MIC,Candida dubliniensis [39],≥ 128 µg/mL
same,MIC,Candida dubliniensis [40],≤ 0.25 µg/mL
same,MIC,Candida dubliniensis [41],≤ 0.25 µg/mL
same,MIC,Candida dubliniensis [42],≤ 0.25 µg/mL
same,MIC,Candida dubliniensis [43],≤ 0.25 µg/mL
same,MIC,Candida dubliniensis [44],≤ 0.25 µg/mL
same,MIC,Candida dubliniensis [45],≤ 0.25 µg/mL
same,MIC,Candida dubliniensis [46],≤ 0.25 µg/mL
same,MIC,Candida dubliniensis [47],≤ 0.25 µg/mL
same,MIC,Candida dubliniensis [48],≤ 0.25 µg/mL
same,MIC,Candida albicans [49],> 64 µg/mL
same,MIC,Candida albicans [50],4 µg/mL
same,MIC,Candida dubliniensis [51],≥ 128 µg/mL
same,MIC,Candida dubliniensis [52],≤ 0.125 µg/mL
same,MIC,Candida albicans [53],≥ 0.06 µg/mL
same,MIC,Candida dubliniensis [54],≤ 0.25 µg/mL
same,MIC,Candida dubliniensis [55],≤ 0.25 µg/mL
same,MIC,Candida dubliniensis [56],≤ 0.25 µg/mL
